Laboratory results from ChEMBL document CHEMBL1201862, “PubChem BioAssay data set” (2004).
Active and inactive are the calls of the source.

Legend:
[1] = target: T1, Protein RecA (Mycobacterium tuberculosis, UniProt P9WHJ3); test: Fluorescence Cell-Free Homogeneous Dose Retest to Identify Inhibitors of RecA-Intein Splicing Activity. [Related pubchem assays (depositor defined):AID2097, AID2223, AID489010, AID492950]; type: functional
T1 sequence (P9WHJ3 whole entry): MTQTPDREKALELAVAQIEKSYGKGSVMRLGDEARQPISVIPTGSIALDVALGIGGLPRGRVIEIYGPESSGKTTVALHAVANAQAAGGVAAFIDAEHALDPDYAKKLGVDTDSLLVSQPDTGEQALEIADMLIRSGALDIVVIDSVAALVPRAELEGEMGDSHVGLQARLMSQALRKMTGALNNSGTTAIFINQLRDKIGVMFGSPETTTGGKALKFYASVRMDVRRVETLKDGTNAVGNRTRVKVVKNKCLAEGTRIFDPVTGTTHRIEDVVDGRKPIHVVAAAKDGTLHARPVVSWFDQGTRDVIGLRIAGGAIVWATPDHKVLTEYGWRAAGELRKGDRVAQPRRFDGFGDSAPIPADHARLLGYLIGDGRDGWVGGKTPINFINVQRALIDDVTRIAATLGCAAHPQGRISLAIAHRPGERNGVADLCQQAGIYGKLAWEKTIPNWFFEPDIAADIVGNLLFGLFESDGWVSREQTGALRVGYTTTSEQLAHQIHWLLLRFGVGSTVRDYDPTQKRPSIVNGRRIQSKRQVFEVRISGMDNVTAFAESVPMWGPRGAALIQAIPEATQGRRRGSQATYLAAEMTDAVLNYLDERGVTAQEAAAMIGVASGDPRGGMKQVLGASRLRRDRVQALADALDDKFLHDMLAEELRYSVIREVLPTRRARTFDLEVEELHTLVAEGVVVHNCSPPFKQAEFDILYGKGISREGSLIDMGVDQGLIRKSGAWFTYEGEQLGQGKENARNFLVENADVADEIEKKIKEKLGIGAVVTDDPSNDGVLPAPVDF

[2] = target: T2, Replicative DNA helicase DnaB (Mycobacterium tuberculosis, UniProt P9WMR3); test: DnaB intein splicing inhibitors, dose response, biochemical, cell-free fluorescence (AID 449749); type: functional
T2 sequence (P9WMR3 whole entry): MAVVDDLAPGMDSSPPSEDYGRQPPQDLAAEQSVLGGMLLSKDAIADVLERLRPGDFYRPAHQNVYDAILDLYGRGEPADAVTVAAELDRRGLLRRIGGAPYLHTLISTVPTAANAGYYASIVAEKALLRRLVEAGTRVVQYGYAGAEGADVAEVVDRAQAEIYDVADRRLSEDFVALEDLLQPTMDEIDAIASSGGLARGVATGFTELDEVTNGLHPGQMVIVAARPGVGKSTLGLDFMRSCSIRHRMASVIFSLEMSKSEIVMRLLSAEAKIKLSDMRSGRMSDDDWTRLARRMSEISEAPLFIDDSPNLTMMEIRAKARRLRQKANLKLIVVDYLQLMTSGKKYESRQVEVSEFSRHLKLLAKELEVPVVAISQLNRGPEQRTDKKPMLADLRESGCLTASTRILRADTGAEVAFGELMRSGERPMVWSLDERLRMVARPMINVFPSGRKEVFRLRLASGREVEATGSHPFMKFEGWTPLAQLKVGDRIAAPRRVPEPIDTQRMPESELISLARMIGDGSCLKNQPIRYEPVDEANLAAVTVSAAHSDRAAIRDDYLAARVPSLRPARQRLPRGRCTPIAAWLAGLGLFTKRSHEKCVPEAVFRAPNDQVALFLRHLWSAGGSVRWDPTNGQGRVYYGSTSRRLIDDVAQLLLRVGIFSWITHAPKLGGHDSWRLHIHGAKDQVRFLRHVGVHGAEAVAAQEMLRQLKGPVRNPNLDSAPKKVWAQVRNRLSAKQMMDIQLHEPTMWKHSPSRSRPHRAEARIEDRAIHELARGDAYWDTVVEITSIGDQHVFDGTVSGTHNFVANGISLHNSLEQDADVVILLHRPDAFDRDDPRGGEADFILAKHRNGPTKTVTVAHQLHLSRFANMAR

[3] = A High Throughput Confirmatory Assay used to Identify Novel Compounds that Inhibit Mycobacterium Tuberculosis in the absence of Glycerol.; type: functional
[4] = A cytotoxicity screen of small molecule inhibitors of the PhoP region in Salmonella typhi identified in the primary screen. [Related pubchem assays: 1850, 1864, 1985 ]; type: functional
[5] = target: T3, Lysosomal acid glucosylceramidase (Homo sapiens, UniProt P04062); test: Dose response cell-based high throughput screening assay to identify enhancers of beta-glucosidase activity. [Related pubchem assays: 784 ]; type: functional
T3 sequence (P04062 whole entry): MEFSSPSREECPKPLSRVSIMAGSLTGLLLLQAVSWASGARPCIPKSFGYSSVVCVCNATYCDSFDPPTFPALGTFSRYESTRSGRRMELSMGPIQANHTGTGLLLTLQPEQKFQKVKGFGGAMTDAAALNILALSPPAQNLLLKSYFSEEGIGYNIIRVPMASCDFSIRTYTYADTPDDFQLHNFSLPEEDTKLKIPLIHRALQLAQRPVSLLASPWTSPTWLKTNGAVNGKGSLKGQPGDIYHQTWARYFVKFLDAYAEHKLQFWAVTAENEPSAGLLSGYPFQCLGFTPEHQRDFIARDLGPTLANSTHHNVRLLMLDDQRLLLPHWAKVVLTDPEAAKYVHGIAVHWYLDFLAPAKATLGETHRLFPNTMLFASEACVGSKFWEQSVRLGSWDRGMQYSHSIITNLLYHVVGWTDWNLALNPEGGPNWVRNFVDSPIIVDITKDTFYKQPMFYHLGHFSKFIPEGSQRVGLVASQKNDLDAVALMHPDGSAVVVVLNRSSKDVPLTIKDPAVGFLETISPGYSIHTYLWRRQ

[6] = HEK-293T viability loss after treatment – luminescence, T-cell screen hits, cytotoxicity control for TCR NF-kB inhibitor project, dose response (AID 489026); type: functional, cell-based;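 further: cells exposed to compound about 14 hours before the viability readout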
[7] = test system: BJ; test: BJ-TERT fibroblast viability loss – cell-based, RAS-independent, luminescence, dose response (AID 1933); type: functional; settings: Homo sapiens
[8] = DRD fibroblast viability loss – cell-based, non-viral oncogenic, luminescence, dose response (AID 1934); type: functional; settings: Homo sapiens
[9] = test system: BJ; test: cells; type: functional, cell-based; settings: Homo sapiens
[10] = test system: BJ; test: BJ-TERT-LT-ST fibroblast viability loss – cell-based, RAS-independent, luminescence, dose response (AID 1935); type: functional; settings: Homo sapiens;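 further: BJ fibroblasts immortalized with TERT plus LT and ST oncogenes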
[11] = target: Eukaryotic translation initiation factor 4E (Mus musculus, UniProt P63073); test: blockers of eIF4G binding by eIF4E – biochemical, TR-FRET, dose response (AID 855); type: functional;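 further: potency for disrupting eIF4E binding to eIF4GI seen as loss of FRET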
Eukaryotic translation initiation factor 4E, sequence (P63073 whole entry): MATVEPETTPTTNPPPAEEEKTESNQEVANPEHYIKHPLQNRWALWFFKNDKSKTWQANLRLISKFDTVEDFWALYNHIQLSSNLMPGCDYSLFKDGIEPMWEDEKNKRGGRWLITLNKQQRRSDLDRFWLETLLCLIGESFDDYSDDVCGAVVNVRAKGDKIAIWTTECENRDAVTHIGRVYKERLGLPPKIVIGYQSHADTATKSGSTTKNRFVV

[12] = THP-1 cell cytotoxicity, dose response, cytotoxicity control for non-replicating M. tuberculosis project (AID 489025); type: functional
[13] = cells; type: functional
[14] = toxicity toward HepG2 liver cells – cell-based, plate reader, cherry-pick, antagonist series, cytotoxicity control, dose response (AID 743416); type: functional
[15] = blockers of bursicon-stimulated LGR2 cAMP reporter – cell-based, HEK293, CRE-luciferase reporter, cherry pick, set 2, dose response (AID 743343); type: functional;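 further: transfected cells were stimulated with diluted bursicon conditioned medium after compound addition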
[16] = A549 cell cytotoxicity, dose response, cytotoxicity control, plate reader, cherry-pick, antagonist series (AID 743412); type: functional, cell-based
[17] = microbe, parasite or virus in culture; type: functional; settings: Mycobacterium tuberculosis
[18] = viability loss in HEK293 cells – cell-based, plate reader, cherry-picked samples, cytotoxicity control, dose response (AID 743446); type: functional
[19] = blockade of melanocortin 4 receptor signaling – cell-based, plate reader, cherry pick, counter-screen for LGR2 antagonist project, dose response (AID 743444); type: functional;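 further: transfected HEK 293 cells stimulated with alpha-MSH peptide; potency of inhibitors of the alpha-MSH evoked signal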
[20] = target: Cytochrome P450 2C19 (Homo sapiens, UniProt P33261); test: Cytochrome panel assay with activity outcomes. Panel member name: p450-cyp2c19 Compounds with AC50 equal or less than 10 uM are considered active; type: functional; settings: read-out: AC50
Cytochrome P450 2C19, sequence (P33261 whole entry): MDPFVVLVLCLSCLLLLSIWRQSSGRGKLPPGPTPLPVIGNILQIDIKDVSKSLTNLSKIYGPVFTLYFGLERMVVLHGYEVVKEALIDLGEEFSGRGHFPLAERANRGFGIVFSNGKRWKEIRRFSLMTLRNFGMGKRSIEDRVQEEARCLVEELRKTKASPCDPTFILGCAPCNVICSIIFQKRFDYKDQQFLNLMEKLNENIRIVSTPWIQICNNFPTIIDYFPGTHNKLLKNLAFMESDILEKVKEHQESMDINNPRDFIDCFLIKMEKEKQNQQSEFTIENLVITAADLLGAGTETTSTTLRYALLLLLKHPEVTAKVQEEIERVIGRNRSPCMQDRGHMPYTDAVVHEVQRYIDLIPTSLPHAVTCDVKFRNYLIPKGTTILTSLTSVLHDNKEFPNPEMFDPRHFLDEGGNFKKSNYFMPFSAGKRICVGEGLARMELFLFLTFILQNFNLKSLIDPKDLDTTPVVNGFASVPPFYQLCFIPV

[21] = target: T4, Cytochrome P450 1A2 (Homo sapiens, UniProt P05177);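 further: PubChem cytochrome P450 panel assay, CYP1A2 panel member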
T4 sequence (P05177 whole entry): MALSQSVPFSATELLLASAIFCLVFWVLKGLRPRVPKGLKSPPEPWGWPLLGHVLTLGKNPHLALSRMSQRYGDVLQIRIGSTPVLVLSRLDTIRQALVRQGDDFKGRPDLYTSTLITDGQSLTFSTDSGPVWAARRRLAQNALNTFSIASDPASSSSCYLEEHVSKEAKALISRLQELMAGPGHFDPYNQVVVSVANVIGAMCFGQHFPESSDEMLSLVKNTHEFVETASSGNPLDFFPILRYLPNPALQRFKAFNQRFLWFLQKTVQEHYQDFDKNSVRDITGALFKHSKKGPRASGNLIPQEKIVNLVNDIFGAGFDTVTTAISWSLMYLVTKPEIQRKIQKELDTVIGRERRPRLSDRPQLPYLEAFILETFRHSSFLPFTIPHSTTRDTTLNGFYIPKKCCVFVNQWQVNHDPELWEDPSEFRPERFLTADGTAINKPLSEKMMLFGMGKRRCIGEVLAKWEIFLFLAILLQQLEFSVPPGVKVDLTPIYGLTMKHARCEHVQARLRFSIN

[22] = target: Cytochrome P450 3A4 (Homo sapiens, UniProt P08684);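 further: CYP3A4 tested as one member of a cytochrome P450 panel screen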
Cytochrome P450 3A4, sequence (P08684 whole entry): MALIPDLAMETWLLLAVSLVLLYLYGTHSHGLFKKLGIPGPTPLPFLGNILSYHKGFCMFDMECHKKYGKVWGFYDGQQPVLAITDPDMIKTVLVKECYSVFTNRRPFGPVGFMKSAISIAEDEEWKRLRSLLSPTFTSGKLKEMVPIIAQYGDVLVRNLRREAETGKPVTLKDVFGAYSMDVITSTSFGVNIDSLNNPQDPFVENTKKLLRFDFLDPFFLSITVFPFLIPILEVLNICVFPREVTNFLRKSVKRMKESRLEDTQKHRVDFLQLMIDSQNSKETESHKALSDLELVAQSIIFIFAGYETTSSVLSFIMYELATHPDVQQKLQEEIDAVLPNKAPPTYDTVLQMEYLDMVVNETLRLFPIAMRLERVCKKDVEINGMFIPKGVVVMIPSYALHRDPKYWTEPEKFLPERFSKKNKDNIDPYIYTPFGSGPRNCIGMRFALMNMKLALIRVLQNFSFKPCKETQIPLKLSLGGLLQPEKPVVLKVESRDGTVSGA

[23] = Luminescence Cell-Based Dose Retest to Confirm Inhibitors of Cancer Stem Cells. [Related pubchem assays (depositor defined):AID2717, AID2721]; type: functional; settings: Homo sapiens

## Cc1ccc(-c2ccc(C3C(C#N)=C(N)Oc4[nH]nc(C)c43)o2)cc1 (stereo unspecified)
[1]
  EC50: 4.25 µM (active)
[2]
  AC50: > 380 µM (inactive)
[3]
  IC50: > 100 µM (active)

## Cc1ccc(NC(=O)C(=O)NNC(=O)c2cccs2)cc1
[4]
  EC50: > 50 µM (active)

## C=CCN(C(=O)Cn1nnc2ccccc21)C(C(=O)NCCOC)c1ccc(OC)cc1OC (stereo unspecified)
[5]
  EC50: > 50 µM (not active)

## O=C(CCS(=O)(=O)c1ccc(Br)cc1)N1CCN(Cc2ccccc2)CC1
[5]
  EC50: > 50 µM (not active)

## CCOc1ccc(S(=O)(=O)NCc2ccccn2)cc1NC(=O)c1ccccc1F
[6]
  IC50: > 80 µM (inactive)
[7]
  EC50: 2.76 µM (active)
[8]
  EC50: 12.9 µM (inconclusive)
[9]
  EC50: 21.4 µM (active)
[10]
  EC50: 1.79 µM (active)

## O=C(O)CCSc1nnc(SCC(=O)NCC(F)(F)F)s1
[11]
  IC50: > 64 µM (inactive)

## CC1CCCN(C(=O)Cn2c(=O)oc3cc(S(=O)(=O)N4CCCCC4)ccc32)C1 (stereo unspecified)
[4]
  EC50: > 50 µM (active)

## Cc1cc(C)cc(N2CCN(C(=O)N3CCOCC3)CC2)c1
[5]
  EC50: > 50 µM (not active)

## Cc1ccnc(NC(=O)c2cc3ccccc3o2)c1
[12]
  CC50: > 40 µM (active)
[13]
  IC50: 19.3 µM (active)
[14]
  AC50: > 52 µM (inactive)
[15]
  AC50: 2.27 µM (active)
[16]
  AC50: 30 µM (active)
[3]
  IC50: > 50 µM (active)
[17]
  CC50: > 40 µM (active)
[18]
  AC50: 52 µM (active)
[19]
  AC50: 2.06 µM (active)

## O=C(C1CCN(S(=O)(=O)c2cccnc2)CC1)N1CCN(c2cccc(Cl)c2)CC1
[11]
  IC50: > 64 µM (inactive)

## Cc1c(Cl)cccc1N(CC(=O)O)S(C)(=O)=O
[5]
  EC50: > 50 µM (not active)

## CCOc1ccc(OCCSc2nc3ccccc3[nH]2)cc1
[4]
  EC50: > 50 µM (active)

## Cc1ccc(C)c(NC(=O)C2CC(O)CN2C(=O)OC(C)(C)C)c1 (stereo unspecified)
[20]
  AC50: 28.2 µM (inconclusive)
[5]
  EC50: > 50 µM (not active)
[21]
  AC50: 31.6 µM (inconclusive)
[22]
  AC50: 25.1 µM (inconclusive)

## COC(=O)c1ccc(CSc2nc(C(F)(F)F)c3c(c2C#N)CCC3)o1
[3]
  IC50: > 100 µM (active)
[17]
  CC50: > 40 µM (active)

## COC(=O)Nc1ccc(S(=O)(=O)N2c3ccccc3CCC2C)cc1 (stereo unspecified)
[23]
  AC50: 0.876 µM (active)
[6]
  IC50: > 80 µM (inactive)

## O=C(CN(Cc1ccco1)C(=O)CNS(=O)(=O)c1ccc(Cl)cc1)NCc1ccc(F)cc1
[4]
  EC50: > 50 µM (active)

## COC(=O)/C=C/C(=O)N1CCN(c2ccccc2C)CC1
[11]
  IC50: > 64 µM (inactive)
